In assay [1] the target is T1, human MAO-B enzyme (Homo sapiens (Human), UniProt P27338). Kind of assay: Screening of MAO-B activity inhibition (Amplex Red monoamine oxidase assay kit, benzylamine substrate). The format is biochemical. The settings on record: activity assay at 0.001, 0.01, 0.1, 1 and 10 uM.
The target in assay [2] is T1, human MAO-B enzyme. The assay is described as above. It is filed as biochemical. The conditions noted are these: 10 uM of the synthesized compound, pargyline-corrected. Here is the method:
A stock solution was prepared using a human MAO-B enzyme (purchased from Aldrich) and a Amplex® Red monoamine oxidase assay kit according to a preparation manual. The kit includes a 5× reaction buffer, an Amplex® red reagent (1 mg), HRP, DMSO, H2O2, p-tyramine (substrate of MAO-A, B), benzylamine (substrate of MAO-B), clorgiline (inhibitor of MAO-A), and pargyline (inhibitor of MAO-B). Among these reagents in the kit, benzylamine was used as a substrate for MAO-B, and pargyline was used as an MAO-B inhibitor. A solution as overall substrates was prepared as follows. 200 ul of a solution of 1 mg of Amplex® red sufficiently dissolved in 200 ul of DMSO, 100 ul of a mixed solution of HRP and 1 ml of a 1× buffer, 200 ul of a solution of benzylamine dissolved in 1.2 ml of dH2O were added to 9.5 ml of a 1× buffer to reach a total volume of 10 mL, which is sufficient for 100 wells. 0.5 ul of a mixture of MAO-B inhibitor pargyline and 1 ml of dH2O was put into each well. First, the activity of MAO-B was determined using 10 uM of the synthesized compound.
96 wells were injected with positive and negative types, and the wile type. The positive type included only substrate and hydrogen peroxide, and the negative type included only substrate. For the wild type, corresponding wells were injected with the enzyme, substrate, and MAO-B inhibitor, but with no synthesized compound. Afterward, 2 ul of the synthesized compound (1 mM) was added into each well, and the human MAO-B enzyme was put only into the 1st row of wells. 0.5 ug of the human MAO-B was put into each well along with 100 ul of a 1× buffer. The human MAO-B enzyme was put into the 2nd row of the wells along with 0.5 ul of a pargyline, the MAO-B inhibitor. To reduce an experimental error for accuracy, the test was repeated three times for each compound. After 30 minutes, 100 ul of the substrate solution was added into each well in a darkroom. The test was performed in the darkroom due to light sensitivity of the Amplex® reagent. Finally, a total volume of the reaction solution per well reached 200 ul. After about 2 to 3 hours, chromophoric degrees of the samples were measured. A variation in data values for the 1st and 2nd rows of the wells indicates the pure reaction activity of the MAO-B enzyme with the substrate. Using the samples with the synthesized compound the remaining activity of MAO-B after inhibited by the synthesized compound may be determined. This is because the activities of the other enzymes excluding the MAO-B enzyme may be excluded through this method. Compounds with high inhibitory activity at a concentration of 10 uM were screened from among the synthesized compounds at a compound concentration of 10 uM.

Molecules are shown by their SMILES.

T1 sequence (P27338 whole entry): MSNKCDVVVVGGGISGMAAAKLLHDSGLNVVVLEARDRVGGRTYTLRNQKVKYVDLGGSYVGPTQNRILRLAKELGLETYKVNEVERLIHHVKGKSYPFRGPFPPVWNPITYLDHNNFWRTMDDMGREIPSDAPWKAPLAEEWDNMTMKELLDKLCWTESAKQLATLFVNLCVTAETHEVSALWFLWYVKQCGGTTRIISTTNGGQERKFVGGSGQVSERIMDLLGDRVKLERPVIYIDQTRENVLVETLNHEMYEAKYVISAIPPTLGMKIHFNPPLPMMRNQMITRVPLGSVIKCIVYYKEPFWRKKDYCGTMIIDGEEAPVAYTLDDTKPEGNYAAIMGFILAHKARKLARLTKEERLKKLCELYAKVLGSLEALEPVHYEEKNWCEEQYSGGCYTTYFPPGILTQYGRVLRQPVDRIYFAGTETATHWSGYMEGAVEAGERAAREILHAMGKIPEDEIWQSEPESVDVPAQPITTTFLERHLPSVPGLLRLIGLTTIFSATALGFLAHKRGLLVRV

`Clc1ccccc1-c1nc2ccc(N3CCCCC3)nc2o1` [Example 5-39, 2-chlorophenyl-5-(piperidine-1-yl)oxazolo[5,4-b]pyridine] displayed an IC50 in assay [1] of 13.2 µM. Besides, in assay [2], the “Remaining activity of MAO-B (%)” value is 0.6%.

As for `Fc1cccc(-c2nc3ccc(N4CCCCC4)nc3o2)c1` [Example 5-40, 2-(3-fluorophenyl)-5-(piperidine-1-yl)oxazolo[5,4-b]pyridine], in assay [1], the half-maximal inhibitory concentration (IC50) is 0.27 µM. Besides, in assay [2], the “Remaining activity of MAO-B (%)” value stood at 13.8%.

Take `Fc1ccc(-c2nc3ccc(N4CCCCC4)nc3o2)cc1` [Example 5-45, 2-(4-fluorophenyl)-5-(piperidine-1-yl)oxazolo[5,4-b]pyridine]: in assay [1], the IC50 worked out at 10.1 µM. In addition, the “Remaining activity of MAO-B (%)” value in assay [2] was 26.5%.

`Brc1ccc(-c2nc3ccc(N4CCCCC4)nc3o2)cc1` [Example 5-47, 2-(4-bromophenyl)-5-(piperidine-1-yl)oxazolo[5,4-b]pyridine] returned an IC50 in assay [1] of 0.096 µM. For the same molecule, the “Remaining activity of MAO-B (%)” value in assay [2] is reported as 28.6%.

For the molecule `COc1ccc(-c2nc3ccc(N4CCCCC4)nc3o2)cc1` [Example 5-49, 2-(4-methoxyphenyl)-5-(piperidine-1-yl)oxazolo[5,4-b]pyridine], the 50% inhibitory concentration (IC50) in assay [1] amounted to 1.52 µM. Also, in assay [2], the “Remaining activity of MAO-B (%)” value amounted to 15.8%.

`c1ccc(CNc2ccc3nc(-c4ccccc4)sc3n2)cc1` [Example 5-58, N-benzyl-2-phenylthiazolo[5,4-b]pyridine-5-amine]: the IC50 in assay [1] was 1900 µM. In assay [2], the “Remaining activity of MAO-B (%)” value is recorded as 60.8%.

For `CN(Cc1ccccc1)c1ccc2nc(-c3cccc(Cl)c3)oc2n1` [Example 5-67, N-benzyl-2-(3-chlorophenyl)-N-methyloxazolo[5,4-b]pyridine-5-amine], the midpoint of inhibition in assay [1], the IC50, lay at 68.2 µM. Moreover, the “Remaining activity of MAO-B (%)” value in assay [2] worked out at 47.3%.

In assay [1], `CN(Cc1ccccc1)c1ccc2nc(-c3ccc(Cl)cc3)oc2n1` [Example 5-68, N-benzyl-2-(4-chlorophenyl)-N-methyloxazolo[5,4-b]pyridine-5-amine] yielded a half-inhibitory concentration (IC50) of 5.08 µM. Also, the “Remaining activity of MAO-B (%)” value in assay [2] came to 24.1%.

Regarding `CNc1ccc2nc(-c3ccccc3)sc2n1` [Example 5-74, N-methyl-2-phenylthiazolo[5,4-b]pyridine-5-amine], the concentration for half-maximal inhibition (IC50) in assay [1] turned out to be 15.7 µM. Moreover, the “Remaining activity of MAO-B (%)” value in assay [2] is 27.2%.

In assay [1], `CNc1ccc2nc(-c3cccc(F)c3)oc2n1` [Example 5-75, 2-(3-fluorophenyl)-N-methyloxazolo[5,4-b]pyridine-5-amine] came in with a half-inhibitory concentration (IC50) of 9.86 µM. Also, the “Remaining activity of MAO-B (%)” value in assay [2] is given as 22%.

`CNc1ccc2nc(-c3cccc(Cl)c3)oc2n1` [Example 5-76, 2-(3-chlorophenyl)-N-methyloxazolo[5,4-b]pyridine-5-amine]: the IC50 in assay [1] worked out at 2.99 µM. Further, the “Remaining activity of MAO-B (%)” value in assay [2] is recorded as 4.4%.

As to `CNc1ccc2nc(-c3ccc(Cl)cc3)oc2n1` [Example 5-77, 2-(4-chlorophenyl)-N-methyloxazolo[5,4-b]pyridine-5-amine], inhibition in assay [1] was half-maximal at 3.02 µM (IC50). Also, the “Remaining activity of MAO-B (%)” value in assay [2] is reported as 4.14%.

The values above are taken from patent US9469653B2, “Pharmaceutical compositions for preventing or treating degenerative brain disease and method of screening the same” (KOREA INSTITUTE OF SCIENCE AND TECHNOLOGY, priority 2011, dated 2016).
